Where a name gives a salt, the structure may show the parent alone.
Assays:
FGFR1 IIIc = molecular target: T1, FGFR1 IIIc (Homo sapiens, UniProt P11362); assay: Cell based inhibition of transiently expressed FGFR1 IIIc phosphorylation (Cos-1 cells); details: Cos-1 cells, phospho-FGFR1; upper bound of bin; read-out: IC50
T1 construct: host or cells: Cos-1
Method: This assay is designed to detect inhibitors of transiently expressed FGFR1 phosphorylation by antibody staining of fixed cells detected using ArrayScan technology.
To undertake the assay, Cos-1 cells were harvested at 90-95% confluence for cell transfection. For each 96-well plate, 24 ul Lipofectamine 2000 was added to 809 ul OptiMEM and incubated at room temperature for 5 minutes. […] Equal volumes of DNA and Lipofectamine 2000 were combined (DNA: Lipid=1:1.2 ratio) and incubated at room temperature for 20 minutes.
The harvested Cos-1 cells are counted using a coulter counter and diluted further with 1% FCS/DMEM to 2.5×10^5 cells/ml. For each 96-well, 8.33 ml cells were required. […] Media was removed from the wells using vacuum aspiration; cells were fixed by adding 50μl of 100% methanol to each well and incubated at room temperature for 20 minutes.
The plates were read on an Arrayscan (Cellomics).

Erk phosphorylation = assay: Growth factor (bFGF) stimulated Erk phosphorylation in NIH 3T3 cells; details: Mus musculus, NIH3T3, NIH 3T3 cells, 3 ng/ml bFGF
Source text: These and other assays were used to evaluate the ability of a test compound to inhibit growth factor stimulated cellular signalling in mammalian cell lines. This was achieved by measuring the amount of receptor tyrosine kinase regulated Erk phosphorylation within a cell following compound treatment.
NIH 3T3 (ECACC, 93061524) cells were routinely passaged in DMEM (Gibco BRL, 41966) plus 10% foetal calf serum (FCS), 1% L-glutamine (Gibco BRL, 25030) to a confluence not greater than 80%. To undertake the assay, NIH 3T3's were seeded at 1×10^4 cells/well in DMEM plus 10% foetal calf serum, 1% L-glutamine in 96 well plates (Costar, 3904) and incubated at 37° C. (+5% CO2) in a humidified incubator. Once the cells had fully adhered (typically following 4-5 hours incubation) the media was removed from each well and the cells gently washed with 100μl warm serum free media. 90μl of serum free DMEM plus 1% L-glutamine was then added to each well and the plates were returned to a humidified 37° C. (+5% CO2) incubator. The following day, the plates were dosed with 10[l compound (diluted from 10 mM stock in DMSO using serum free DMEM) and the plates were returned to a humidified 37° C. (+5% CO2) incubator for one hour. NIH 3T3 cells were then stimulated with a final concentration of 3 ng/ml bFGF (Sigma, F029 1) for 20 minutes at 37° C. Following stimulation the cells were fixed by adding formaldehyde (4% v/v final concentration) and incubating at room temperature for 20 minutes. The fixative solution was then removed and the wells were washed twice with 100μl phosphate buffered saline (PBS/A) before permeabilising the cells by the addition of 50 μl/well 0.1% triton/PBS/A for 10 minutes at room temperature. The permeabilisation solution was then removed and the cells washed twice more with 100 μl/well PBS/A before the addition of 50 μl/well anti-phospho p44/42 (Cell Signalling Technology, 9106), diluted 1/500 with PBS/A plus 10% FCS. The anti-phospho p44/42 antibody recognises Erk phosphorylated at threonine 202 and tyrosine 204. […] Finally, the plates were washed three times with 100 μl/well PBS/A, leaving the final wash in the wells before sealing the plates. The plates were read at 350 nm and 488 nm using an Arrayscan (Cellomics).

FGFR1 kinase = FGFR1 kinase (Homo sapiens, UniProt P11362); assay: Kinase assay (using Caliper technology); assay type: biochemical; details: FGFR1 kinase, Caliper; upper bound of bin; read-out: IC50
Outline: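 Human FGFR1 kinase activity measured with a 13-mer fluorescently tagged FGFR1-specific peptide substrate; compounds serially diluted in 5% (v/v) DMSO. Reactions ran 1.5 h at room temperature, stopped with EDTA-containing HEPES pH 7.5 buffer. Phosphorylated and unphosphorylated peptide separated by microfluidic mobility shift.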

human IGF1R = molecular target: T2, human IGF1R (Homo sapiens, UniProt P08069); assay: Inhibition of insulin-like growth factor-1 receptor phosphorylation in R+ cells; assay type: cell-based; details: 30 nM IGF1, read-out: IGF cell class
T2 construct: expressed in transfected cells; host or cells: R+ cells (R- mouse fibroblasts transfected with human IGF1R)
T2 sequence (P08069 31-1367): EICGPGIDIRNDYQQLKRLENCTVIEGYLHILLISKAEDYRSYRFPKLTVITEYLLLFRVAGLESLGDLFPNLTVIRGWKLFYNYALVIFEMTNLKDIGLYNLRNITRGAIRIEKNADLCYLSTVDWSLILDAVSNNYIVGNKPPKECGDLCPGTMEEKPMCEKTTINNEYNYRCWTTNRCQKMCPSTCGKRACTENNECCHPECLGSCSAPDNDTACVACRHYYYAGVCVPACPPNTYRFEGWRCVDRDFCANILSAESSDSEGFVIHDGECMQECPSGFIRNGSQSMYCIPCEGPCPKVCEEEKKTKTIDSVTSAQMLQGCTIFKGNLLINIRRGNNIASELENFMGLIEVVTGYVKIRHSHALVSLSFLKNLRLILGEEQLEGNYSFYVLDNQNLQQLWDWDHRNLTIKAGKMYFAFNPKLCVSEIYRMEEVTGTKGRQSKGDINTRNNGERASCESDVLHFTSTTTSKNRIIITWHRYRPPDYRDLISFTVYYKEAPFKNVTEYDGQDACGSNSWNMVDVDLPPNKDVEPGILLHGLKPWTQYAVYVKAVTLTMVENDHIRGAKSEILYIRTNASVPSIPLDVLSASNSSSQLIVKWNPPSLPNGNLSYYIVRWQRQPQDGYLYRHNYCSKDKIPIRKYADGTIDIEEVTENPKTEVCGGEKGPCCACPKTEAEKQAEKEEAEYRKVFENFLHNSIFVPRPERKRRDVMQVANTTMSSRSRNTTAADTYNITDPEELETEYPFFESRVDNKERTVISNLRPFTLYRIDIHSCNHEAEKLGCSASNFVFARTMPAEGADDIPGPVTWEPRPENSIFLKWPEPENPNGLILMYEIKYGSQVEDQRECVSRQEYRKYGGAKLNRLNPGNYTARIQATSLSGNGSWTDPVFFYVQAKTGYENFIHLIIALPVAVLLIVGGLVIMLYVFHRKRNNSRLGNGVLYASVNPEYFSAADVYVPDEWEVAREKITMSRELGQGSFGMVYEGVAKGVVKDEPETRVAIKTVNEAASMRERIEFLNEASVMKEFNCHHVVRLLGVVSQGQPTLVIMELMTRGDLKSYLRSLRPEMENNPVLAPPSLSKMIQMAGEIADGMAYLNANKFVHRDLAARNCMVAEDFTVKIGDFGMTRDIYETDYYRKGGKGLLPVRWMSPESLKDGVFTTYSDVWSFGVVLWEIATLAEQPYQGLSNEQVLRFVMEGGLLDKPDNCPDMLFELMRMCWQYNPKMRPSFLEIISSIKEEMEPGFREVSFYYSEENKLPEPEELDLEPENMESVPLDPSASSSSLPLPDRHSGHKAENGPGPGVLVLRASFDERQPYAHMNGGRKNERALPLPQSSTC

T1 sequence (P11362 22-822): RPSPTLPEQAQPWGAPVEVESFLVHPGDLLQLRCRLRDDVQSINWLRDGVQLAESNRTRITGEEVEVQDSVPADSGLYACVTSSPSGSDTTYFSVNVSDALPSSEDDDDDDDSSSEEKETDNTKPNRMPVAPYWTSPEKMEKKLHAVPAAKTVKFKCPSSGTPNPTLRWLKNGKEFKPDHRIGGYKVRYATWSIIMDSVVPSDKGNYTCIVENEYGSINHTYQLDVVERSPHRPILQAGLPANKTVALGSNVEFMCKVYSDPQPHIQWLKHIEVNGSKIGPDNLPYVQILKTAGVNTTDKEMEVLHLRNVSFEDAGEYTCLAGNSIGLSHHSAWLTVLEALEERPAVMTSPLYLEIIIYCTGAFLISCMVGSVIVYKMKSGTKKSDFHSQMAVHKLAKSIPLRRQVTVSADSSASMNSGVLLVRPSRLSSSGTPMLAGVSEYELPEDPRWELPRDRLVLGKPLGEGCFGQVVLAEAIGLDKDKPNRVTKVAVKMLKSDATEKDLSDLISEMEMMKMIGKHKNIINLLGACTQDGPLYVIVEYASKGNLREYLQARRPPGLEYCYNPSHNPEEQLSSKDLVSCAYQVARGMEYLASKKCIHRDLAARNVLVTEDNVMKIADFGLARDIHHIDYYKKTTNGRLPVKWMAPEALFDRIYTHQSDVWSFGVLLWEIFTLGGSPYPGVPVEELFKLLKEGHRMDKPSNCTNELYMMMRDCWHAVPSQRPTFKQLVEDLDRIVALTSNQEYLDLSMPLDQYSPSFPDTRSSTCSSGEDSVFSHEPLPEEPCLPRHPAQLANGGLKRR
Sequence of FGFR1 kinase (P11362 22-822): as above

SMILES	IC50 (FGFR1 IIIc) [µM]	IC50 (Erk phosphorylation; upper bound of bin) [µM]	IC50 (FGFR1 kinase) [µM]	IC50 (human IGF1R) [µM]	IC50 (Erk phosphorylation) [µM]
Cc1cc(CNc2nccc(Nc3cc(CCc4cccc(OC(F)(F)F)c4)[nH]n3)n2)on1 [Example 51, N-[(3-methyl1,2-oxazol-5-yl)methyl]-N′-[5-[2-[3-(trifluoromethoxy)phenyl]ethyl]-1H-pyrazol-3-yl]pyrimidine-2,4-diamine]	< 10	< 10	< 10	> 10	
Cc1cc(CNc2nccc(Nc3cc(CCc4cccc(Br)c4)[nH]n3)n2)on1 [Example 53, N′-[5-[2-(3-bromophenyl)ethyl]-1H-pyrazol-3-yl]-N-[(3-methyl1,2-oxazol-5-yl)methyl]pyrimidine-2,4-diamine hydrochloride]	< 1	< 1	< 1	> 10	< 0.2
Cc1cc(CNc2nccc(Nc3cc(CCc4ccc5c(c4)OCO5)[nH]n3)n2)on1 [Example 54, N′-[5-(2-benzo [1,3]dioxol-5-ylethyl)-2H-pyrazol-3-yl]-N-[(3-methyl1,2-oxazol-5-yl)methyl]pyrimidine-2,4-diamine]	< 1	< 1	< 1	1 to 10	
Cc1cc(CNc2nccc(Nc3cc(OCc4cccc(OS(C)(=O)=O)c4)[nH]n3)n2)on1 [Example 88, N-[(3-methyl1,2-oxazol-5-yl)methyl]-N′-[5-[(3-methylsulfonyloxyphenyl)methoxy]-2H-pyrazol-3-yl]pyrimidine-2,4-diamine]	< 10	< 10	< 1	> 10	
Cc1cc(CNc2nccc(Nc3cc(OCc4cccc(C(F)(F)F)c4)[nH]n3)n2)on1 [Example 95, N-[(3-methyl1,2-oxazol-5-yl)methyl]-N′-[5-[[3-(trifluoromethyl)phenyl]methoxy]-1H-pyrazol-3-yl]pyrimidine-2,4-diamine hydrochloride]	< 10	< 10	< 10	> 10	
COc1cc(COc2cc(Nc3ccnc(NCc4cc(C)no4)n3)n[nH]2)ccc1F [Example 100, N′-[5-[(4-fluoro-3-methoxy-phenyl)methoxy]-1H-pyrazol-3-yl]-N-[(3-methyl1,2-oxazol-5-yl)methyl]pyrimidine-2,4-diamine hydrochloride]	< 10	< 10	< 10	1 to 10	
Cc1cc(CNc2nccc(Nc3cc(-c4ccco4)[nH]n3)n2)on1 [Example 105, N′-[5-(2-furyl)-1H-pyrazol-3-yl]-N-[(3-methyl1,2-oxazol-5-yl)methyl]pyrimidine-2,4-diamine]	< 10	< 1	< 1	> 10	
Cc1cc(CNc2nccc(Nc3cc(CCC4CCOC4)[nH]n3)n2)on1 (stereo not drawn) [Example 109, N-[(3-methyl1,2-oxazol-5-yl)methyl]-N′-[5-[2-(oxolan-3-yl)ethyl]-1H-pyrazol-3-yl]pyrimidine-2,4-diamine]	< 10	< 10	< 1	> 10	
Cc1cc(CNc2nccc(Nc3cc(CCc4ccoc4)[nH]n3)n2)on1 [Example 110, N′-[5-[2-(3-furyl)ethyl]-1H-pyrazol-3-yl]-N-[(3-methyl1,2-oxazol-5-yl)methyl]pyrimidine-2,4-diamine]	< 1	< 1	< 0.2	1 to 10	
c1cnc(-c2cc(CNc3nccc(Nc4cc(CCc5ccco5)[nH]n4)n3)on2)nc1 [Example 113, N′-[5-[2-(2-furyl)ethyl]-2H-pyrazol-3-yl]-N-[(3-pyrimidin-2-yl1,2-oxazol-5-yl)methyl]pyrimidine-2,4-diamine]	< 10	< 10	< 0.2	1 to 10	
Cc1cc(CNc2nccc(Nc3cc(CCc4cc(C)nn4C)[nH]n3)n2)on1 [Example 118, N′-[5-[2-(2,5-dimethylpyrazol-3-yl)ethyl]-1H-pyrazol-3-yl]-N-[(3-methyl-1,2-oxazol-5-yl)methyl]pyrimidine-2,4-diamine]	< 30	< 30	< 1	> 10	

Reference: patent US20080004302A1, “Novel Compounds” (ASTRAZENECA AB, priority 2006, published 2008)
